{
  "source": "ChEMBL document CHEMBL5096191",
  "about": "(J Med Chem, 2021)",
  "type_in_all_cases": "functional, cell-based",
  "key": {"Cannabinoid receptor 2 [1]": {"target": "T1, Cannabinoid receptor 2 (Homo sapiens, UniProt P34972)", "T1 sequence (P34972 whole entry)": "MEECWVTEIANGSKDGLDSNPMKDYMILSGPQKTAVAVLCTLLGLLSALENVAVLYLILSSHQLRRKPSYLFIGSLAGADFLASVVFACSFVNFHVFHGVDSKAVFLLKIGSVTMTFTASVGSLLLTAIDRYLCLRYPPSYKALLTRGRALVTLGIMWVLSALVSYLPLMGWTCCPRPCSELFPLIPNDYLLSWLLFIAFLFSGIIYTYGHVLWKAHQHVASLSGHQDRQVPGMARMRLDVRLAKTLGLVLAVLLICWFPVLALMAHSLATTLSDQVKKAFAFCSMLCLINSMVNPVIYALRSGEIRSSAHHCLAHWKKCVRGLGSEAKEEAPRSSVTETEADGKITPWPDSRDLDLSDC", "test": "Positive allosteric modulation of JWH-133-induced agonist activity at wild type CB2 receptor (unknown origin) stably expressed in HEK293T cells assessed as inhibition of forskolin-stimulated cAMP levels preincubated for 15 mins followed by forskolin addition incubated for 15 mins by HTRF assay relative to control", "details": "filed as positive allosteric modulator, time 30.0 min"}, "Cannabinoid receptor 2 [2]": {"target": "T1, Cannabinoid receptor 2", "test": "Positive allosteric modulation of JWH-133-induced agonist activity at wild type CB2 receptor (unknown origin) stably expressed in HEK293T cells assessed as inhibition of forskolin-stimulated cAMP levels preincubated for 15 mins followed by forskolin addition incubated for 15 mins by HTRF assay"}, "Cannabinoid receptor 2 [3]": {"target": "T1, Cannabinoid receptor 2", "test": "Negative allosteric modulation of JWH-133-induced agonist activity at wild type CB2 receptor (unknown origin) stably expressed in HEK293T cells assessed as decrease in cAMP levels preincubated for 15 mins followed by forskolin addition incubated for 15 mins by HTRF assay relative to JWH-133", "details": "time 30.0 min"}, "Cannabinoid receptor 2 [4]": {"target": "T1, Cannabinoid receptor 2", "test": "Positive allosteric modulation of JWH-133-induced agonist activity at wild type CB2 receptor (unknown origin) stably expressed in HEK293T cells assessed as decrease in cAMP levels preincubated for 15 mins followed by forskolin addition incubated for 15 mins by HTRF assay relative to JWH-133", "details": "filed as positive allosteric modulator, time 30.0 min"}, "Cannabinoid receptor 2 [5]": {"target": "T1, Cannabinoid receptor 2", "test": "Partial agonist activity at wild type CB2 receptor (unknown origin) stably expressed in HEK293T assessed as decrease in forskolin induced cAMP level preincubated for 15 mins followed by forskolin addition incubated for 15 mins by HTRF assay relative to control", "details": "filed as partial agonist, time 30.0 min"}, "[6]": {"system": "Cannabinoid receptor 2 (Homo sapiens), P34972 [V113M]", "sequence (P34972 whole entry V113M)": "as the sequence (P34972 whole entry) above, with V113M counted along it", "test": "Partial agonist activity at CBR2 V1133.32M mutant (unknown origin) stably expressed in HEK293T assessed as decrease in forskolin induced cAMP level preincubated for 15 mins followed by forskolin addition incubated for 15 mins by HTRF assay relative to control", "details": "filed as partial agonist, time 30.0 min"}, "Cannabinoid receptor 2 [7]": {"target": "T1, Cannabinoid receptor 2", "test": "Partial agonist activity at wild type CB2 receptor (unknown origin) expressed in HEK293T assessed as increase in ERK1/2 phosphorylation incubated for 7 mins by AlphaScreenSureFire method relative to control", "details": "filed as partial agonist"}, "[8]": {"system": "Cannabinoid receptor 2 (Homo sapiens), P34972 [V113M]", "test": "Partial agonist activity at CBR2 V1133.32M mutant (unknown origin) expressed in HEK293T assessed as increase in ERK1/2 phosphorylation incubated for 7 mins by AlphaScreenSureFire method relative to control", "details": "filed as partial agonist"}, "Cannabinoid receptor 2 [9]": {"target": "T1, Cannabinoid receptor 2", "test": "Partial agonist activity at wild type CB2 receptor (unknown origin) expressed in HEK293T assessed as increase in picometer shifts of reflected light wavelengths by DMR assay relative to control", "details": "filed as partial agonist"}, "[10]": {"system": "Cannabinoid receptor 2 (Homo sapiens), P34972 [V113M]", "test": "Partial agonist activity at CBR2 V1133.32M mutant (unknown origin) expressed in HEK293T assessed as increase in picometer shifts of reflected light wavelengths by DMR assay relative to control"}},
  "data": [
    {"compound": "C=C(C)[C@@H]1CCC(C)=C[C@H]1c1c(O)cc(CCCCCC)cc1O", "values": [
      {"measurement": "Emax", "setting": "Cannabinoid receptor 2 [1]", "result": 83.5, "unit": "%"},
      {"measurement": "EC50", "setting": "Cannabinoid receptor 2 [2]", "result": 126, "unit": "nM"},
      {"measurement": "%max", "setting": "Cannabinoid receptor 2 [3]", "result": 38, "unit": "%"}
    ]},
    {"compound": "C=C(C)[C@@H]1CCC(C)=C[C@H]1c1c(O)cc(CC)cc1O", "values": [
      {"measurement": "%max", "setting": "Cannabinoid receptor 2 [4]", "result": 124, "unit": "%"},
      {"measurement": "Emax", "setting": "Cannabinoid receptor 2 [1]", "result": 45.3, "unit": "%"},
      {"measurement": "EC50", "setting": "Cannabinoid receptor 2 [2]", "result": 31.6, "unit": "nM"}
    ]},
    {"compound": "C=C(C)[C@@H]1CCC(C)=C[C@H]1c1c(O)cc(CCCCC)cc1O", "values": [
      {"measurement": "Emax", "setting": "Cannabinoid receptor 2 [5]", "result": 74, "unit": "%"},
      {"measurement": "Emax", "setting": "[6]", "result": 89.1, "unit": "%"},
      {"measurement": "Emax", "setting": "Cannabinoid receptor 2 [7]", "result": 156, "unit": "%"},
      {"measurement": "Emax", "setting": "[8]", "result": 186, "unit": "%"},
      {"measurement": "Emax", "setting": "Cannabinoid receptor 2 [1]", "result": 67.8, "unit": "%"},
      {"measurement": "Emax", "setting": "Cannabinoid receptor 2 [9]", "result": 49.1, "unit": "%"},
      {"measurement": "Emax", "setting": "[10]", "result": 5.3, "unit": "%"}
    ]},
    {"compound": "C=C(C)[C@@H]1CCC(C)=C[C@H]1c1c(O)cc(CCCC)cc1O", "values": [
      {"measurement": "Emax", "setting": "Cannabinoid receptor 2 [1]", "result": 64.1, "unit": "%"},
      {"measurement": "EC50", "setting": "Cannabinoid receptor 2 [2]", "result": 200, "unit": "nM"},
      {"measurement": "%max", "setting": "Cannabinoid receptor 2 [3]; filed as negative allosteric modulator", "result": 82, "unit": "%"}
    ]},
    {"compound": "C=C(C)[C@@H]1CCC(C)=C[C@H]1c1c(O)cc(CCC)cc1O", "note": "[CANNABIDIVARIN]", "values": [
      {"measurement": "%max", "setting": "Cannabinoid receptor 2 [4]", "result": 118, "unit": "%"},
      {"measurement": "Emax", "setting": "Cannabinoid receptor 2 [1]", "result": 48, "unit": "%"},
      {"measurement": "EC50", "setting": "Cannabinoid receptor 2 [2]", "result": 12.6, "unit": "nM"}
    ]}
  ]
}
